Experimental data taken from patent US8017612B2, “Piperazine compound and use thereof as a HCV polymerase inhibitor” (priority 2006, dated 2011).

Legend:
[1] = target: T1, HCV polymerase (NS5B) type 1b (Hepatitis C virus genotype 1b, UniProt P26663); assay: Assay of enzyme (HCV polymerase) inhibitory activity, type 1b enzyme; format: biochemical, HCV BK strain (type 1b); conditions: HCV polymerase inhibitory activity IC50, 1b, type 1b enzyme
T1 construct: a region encoding NS5B (J Virol 1991 March, 65(3), 1105-13, 544 amino acids after deletion of 47 amino acids on the C-terminal); 6xHis (C); made in house; host or cells: Escherichia coli
Method in brief: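 IC50 derived from [3H]UTP incorporation into TCA-insoluble RNA, compared with and without test compound. Reaction (25 °C, 60 min, Tris pH 7.5, 5 mM MgCl2): E. coli-expressed 1b NS5B Δ47 with His tag at 0.5 μg/ml, 5 μg/ml run-off substrate RNA, ATP/GTP/CTP 50 μM, UTP 2 μM.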

[2] = target: T2, HCV polymerase (NS5B) type 1a (Hepatitis C virus genotype 1a, UniProt P26664); assay: Assay of enzyme (HCV polymerase) inhibitory activity, type 1a enzyme; format: biochemical, HCV type 1a (cloned from the blood of patients); conditions: HCV polymerase inhibitory activity IC50, 1a, type 1a enzyme
T2 construct: made in house; host or cells: Escherichia coli (by the 'similar method' of the 1b enzyme)
Method in brief: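 Reactions ran 60 min at 25° C in 20 mM Tris-HCl pH 7.5, 5 mM MgCl2, 50 mM NaCl, holding genotype 1a NS5B (1.5 μg/ml, Δ47 C-terminus, 6His), substrate RNA 5 μg/ml, UTP 2 μM with tritiated UTP and other NTPs 50 μM. IC50 derived from incorporated radiolabel in filter-trapped RNA relative to uninhibited reaction.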

Structure (SMILES)	IC50 [1] [nM]	IC50 [2] [nM]
O=C(NCc1ccc(OC(F)(F)F)cc1)[C@H]1CN(c2cnc3cnccc3n2)CCN1S(=O)(=O)c1ccc(Cl)cc1 [Example 752, (R)-1-(4-chloro-benzenesulfonyl)-4-pyrido[3,4-b]pyrazin-2-yl-piperazine-2-carboxylic acid 4-trifluoromethoxy-benzylamide]	< 100	< 100
CCC(F)(F)c1ccc(CNC(=O)[C@H]2CN(c3cnc4cncnc4n3)CCN2S(=O)(=O)c2ccc(-c3cccc(C(=O)O)c3)cc2)cc1 [Example 753, 4′-{(R)-2-[4-(1,1-difluoro-propyl)-benzylcarbamoyl]-4-pteridin-7-yl-piperazine-1-sulfonyl}-biphenyl-3-carboxylic acid]	< 100	< 100
O=C(NCc1ccc(OC(F)(F)F)cc1)[C@H]1CN(c2cnc3cnccc3n2)CCN1S(=O)(=O)c1ccc([N+](=O)[O-])cc1 [Example 754, (R)-1-(4-nitro-benzenesulfonyl)-4-pyrido[3,4-b]pyrazin-2-yl-piperazine-2-carboxylic acid 4-trifluoromethoxy-benzylamide]	< 100	< 100
O=C(NCc1ccc(OC(F)(F)F)cc1)[C@H]1CN(c2cnc3cnccc3n2)CCN1S(=O)(=O)c1ccc(N2CCCC2)cc1 [Example 755, (R)-4-pyrido[3,4-b]pyrazin-2-yl-1-(4-pyrrolidin-1-yl-benzenesulfonyl)-piperazine-2-carboxylic acid 4-trifluoromethoxy-benzylamide]	< 100	< 100
CCC(F)(F)c1ccc(CNC(=O)[C@H]2CN(c3nc4ccncc4[nH]3)CCN2S(=O)(=O)c2ccc(OC(F)(F)F)cc2)cc1 [Example 756, (R)-4-(3H-imidazo[4,5-c]pyridin-2-yl)-1-(4-trifluoromethoxy-benzenesulfonyl)-piperazine-2-carboxylic acid 4-(1,1-difluoro-propyl)-benzylamide]	< 100	< 100
O=C(NCc1ccc(OC(F)(F)F)cc1)[C@H]1CN(c2cnc3cnccc3n2)CCN1S(=O)(=O)c1ccc(C(F)(F)F)cc1 [Example 757, (R)-4-pyrido[3,4-b]pyrazin-2-yl-1-(4-trifluoromethyl-benzenesulfonyl)-piperazine-2-carboxylic acid 4-trifluoromethoxy-benzylamide]	< 100	< 100
CCC(F)(F)c1ccc(CNC(=O)[C@H]2CN(c3nc4ccccc4[nH]3)CCN2S(=O)(=O)c2ccc(OC(F)(F)F)cc2)cc1 [Example 758, (R)-4-(1H-benzimidazol-2-yl)-1-(4-trifluoromethoxy-benzenesulfonyl)-piperazine-2-carboxylic acid 4-(1,1-difluoro-propyl)-benzylamide]	< 100	< 100
CCC(F)(F)c1ccc(CNC(=O)[C@H]2CN(c3cnc4cncnc4n3)CCN2S(=O)(=O)c2ccc(-c3nc(=O)o[nH]3)cc2)cc1 [Example 759, (R)-1-[4-(5-oxo-2,5-dihydro-[1,2,4]oxadiazol-3-yl)-benzenesulfonyl]-4-pteridin-7-yl-piperazine-2-carboxylic acid 4-(1,1-difluoro-propyl)-benzylamide]	< 100	< 100
CCC(F)(F)c1ccc(CNC(=O)[C@H]2CN(c3cnc4cccnc4n3)CCN2S(=O)(=O)c2ccc(OC(F)(F)F)cc2)cc1 [Example 760, (R)-4-pyrido[2,3-b]pyrazin-3-yl-1-(4-trifluoromethoxy-benzenesulfonyl)-piperazine-2-carboxylic acid 4-(1,1-difluoro-propyl)-benzylamide]	< 100	< 100
CCC(F)(F)c1ccc(CNC(=O)[C@H]2CN(c3cnc4ncccc4n3)CCN2S(=O)(=O)c2ccc(OC(F)(F)F)cc2)cc1 [Example 761, (R)-4-pyrido[2,3-b]pyrazin-2-yl-1-(4-trifluoromethoxy-benzenesulfonyl)-piperazine-2-carboxylic acid 4-(1,1-difluoro-propyl)-benzylamide]	< 100	< 100
O=C(NCc1ccc(OC(F)(F)F)cc1)[C@H]1CN(c2ccc3nccnc3n2)CCN1S(=O)(=O)c1ccc(OC(F)(F)F)cc1 [Example 762, (R)-4-pyrido[2,3-b]pyrazin-6-yl-1-(4-trifluoromethoxy-benzenesulfonyl)-piperazine-2-carboxylic acid 4-trifluoromethoxy-benzylamide]	< 100	< 100
O=C(NCc1ccc(OCC(F)(F)F)cc1)[C@H]1CN(c2cnc3cncnc3n2)CCN1S(=O)(=O)c1ccc(OC(F)(F)F)cc1 [Example 763, (R)-4-pteridin-7-yl-1-(4-trifluoromethoxy-benzenesulfonyl)-piperazine-2-carboxylic acid 4-(2,2,2-trifluoro-ethoxy)-benzylamide]	< 100	< 100
CCOC(=O)CN(C)c1ccc(S(=O)(=O)N2CCN(c3cnc4cnccc4n3)C[C@@H]2C(=O)NCc2ccc(OC(F)(F)F)cc2)cc1 [Example 764, (methyl-{4-[(R)-4-pyrido[3,4-b]pyrazin-2-yl-2-(4-trifluoromethoxy-benzylcarbamoyl)-piperazine-1-sulfonyl]-phenyl}-amino)-acetic acid ethyl ester]	< 100	< 100
CN(CC(=O)O)c1ccc(S(=O)(=O)N2CCN(c3cnc4cnccc4n3)C[C@@H]2C(=O)NCc2ccc(OC(F)(F)F)cc2)cc1 [Example 765, (methyl-{4-[(R)-4-pyrido[3,4-b]pyrazin-2-yl-2-(4-trifluoromethoxy-benzylcarbamoyl)-piperazine-1-sulfonyl]-phenyl}-amino)-acetic acid]	< 100	< 100
O=C(NCc1ccc(OC(F)(F)F)cc1)[C@H]1CN(c2cnc3c(Cl)cccc3n2)CCN1S(=O)(=O)c1ccc(OC(F)(F)F)cc1 [Example 766, (R)-4-(5-chloro-quinoxalin-2-yl)-1-(4-trifluoromethoxy-benzenesulfonyl)-piperazine-2-carboxylic acid 4-trifluoromethoxy-benzylamide]	< 100	100 to 1000
Cc1ncc2ncc(N3CCN(S(=O)(=O)c4ccc(OC(F)(F)F)cc4)[C@@H](C(=O)NCc4ccc(OC(F)(F)F)cc4)C3)nc2n1 [Example 767, (R)-4-(2-methyl-pteridin-7-yl)-1-(4-trifluoromethoxy-benzenesulfonyl)-piperazine-2-carboxylic acid 4-trifluoromethoxy-benzylamide]	< 100	< 100
O=C(NCc1ccc(OC(F)(F)F)cc1)[C@H]1CN(c2nc3ccncc3s2)CCN1S(=O)(=O)c1ccc(OC(F)(F)F)cc1 [Example 768, (R)-4-thiazolo[5,4-c]pyridin-2-yl-1-(4-trifluoromethoxy-benzenesulfonyl)-piperazine-2-carboxylic acid 4-trifluoromethoxy-benzylamide]	< 100	< 100
O=C(NCc1ccc(OC(F)(F)F)cc1)[C@H]1CN(c2cnc3ncccc3n2)CCN1S(=O)(=O)c1ccc(OC(F)(F)F)cc1 [Example 769, (R)-4-pyrido[2,3-b]pyrazin-2-yl-1-(4-trifluoromethoxy-benzenesulfonyl)-piperazine-2-carboxylic acid 4-trifluoromethoxy-benzylamide]	< 100	< 100
O=C(NCc1ccc(OC(F)(F)F)cc1)[C@H]1CN(c2cnc3cccnc3n2)CCN1S(=O)(=O)c1ccc(OC(F)(F)F)cc1 [Example 770, (R)-4-pyrido[2,3-b]pyrazin-3-yl-1-(4-trifluoromethoxy-benzenesulfonyl)-piperazine-2-carboxylic acid 4-trifluoromethoxy-benzylamide]	< 100	< 100
O=C(NCc1ccc(OC(F)(F)F)cc1)[C@H]1CN(c2ccc3cnccc3n2)CCN1S(=O)(=O)c1ccc(OC(F)(F)F)cc1 [Example 771, (R)-4-[1,6]naphthyridin-2-yl-1-(4-trifluoromethoxy-benzenesulfonyl)-piperazine-2-carboxylic acid 4-trifluoromethoxy-benzylamide]	< 100	< 100
O=C(NCc1ccc(SC(F)(F)F)cc1)[C@H]1CN(c2cnc3cncnc3n2)CCN1S(=O)(=O)c1ccc(OC(F)(F)F)cc1 [Example 772, (R)-4-pteridin-7-yl-1-(4-trifluoromethoxy-benzenesulfonyl)-piperazine-2-carboxylic acid 4-trifluoromethylsulfanyl-benzylamide]	< 100	< 100
CCCc1ccc(CNC(=O)[C@H]2CN(c3cnc4cncnc4n3)CCN2S(=O)(=O)c2ccc(OC(F)(F)F)c(CCCC(=O)O)c2)cc1 [Example 773, 4-{5-[(R)-2-(4-propyl-benzylcarbamoyl)-4-pteridin-7-yl-piperazine-1-sulfonyl]-2-trifluoromethoxy-phenyl}-butyric acid]	< 100	< 100
O=C(O)c1ccc(N2CCN(S(=O)(=O)c3ccc(OC(F)(F)F)cc3)[C@@H](C(=O)NCc3ccc(OC(F)(F)F)cc3)C2)nc1 [Example 774, 6-[(R)-4-(4-trifluoromethoxy-benzenesulfonyl)-3-(4-trifluoromethoxy-benzylcarbamoyl)-piperazin-1-yl]-nicotinic acid]	< 100	< 100
